From ChEMBL document CHEMBL1909046, “DrugMatrix in vitro pharmacology data”
pIC50, pKi: −log10 of the molar value.

Columns and labels:
[1] = DRUGMATRIX: Atrial Natriuretic Factor (ANF) radioligand binding (ligand: [125I] ANF (rat)); type: cell membranes, Cavia porcellus, Dunkin-Hartley, Adrenal gland, Membrane; conditions: Not Active = under 50% inhibition at 10 µM
Melanocortin receptor 5 = Melanocortin receptor 5 (Homo sapiens, UniProt P33032); type: cell membranes, Membrane; conditions: hek293; note: in other assays of this panel Not Active means under 50% inhibition at 10 µM
Melanocortin receptor 5, sequence (P33032 whole entry): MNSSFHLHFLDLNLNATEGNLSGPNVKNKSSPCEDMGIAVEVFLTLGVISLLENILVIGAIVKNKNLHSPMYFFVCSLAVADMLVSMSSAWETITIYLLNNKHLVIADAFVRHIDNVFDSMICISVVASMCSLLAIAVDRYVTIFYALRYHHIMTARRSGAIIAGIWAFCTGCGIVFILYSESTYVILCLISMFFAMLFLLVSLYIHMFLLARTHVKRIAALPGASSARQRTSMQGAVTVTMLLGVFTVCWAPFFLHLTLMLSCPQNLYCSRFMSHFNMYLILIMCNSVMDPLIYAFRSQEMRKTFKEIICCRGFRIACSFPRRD

Cytochrome P450 2E1 = Cytochrome P450 2E1 (Homo sapiens, UniProt P05181); conditions: bti-tn-5b1-4; note: in other assays of this panel Not Active means under 50% inhibition at 10 µM
Cytochrome P450 2E1, sequence (P05181 whole entry): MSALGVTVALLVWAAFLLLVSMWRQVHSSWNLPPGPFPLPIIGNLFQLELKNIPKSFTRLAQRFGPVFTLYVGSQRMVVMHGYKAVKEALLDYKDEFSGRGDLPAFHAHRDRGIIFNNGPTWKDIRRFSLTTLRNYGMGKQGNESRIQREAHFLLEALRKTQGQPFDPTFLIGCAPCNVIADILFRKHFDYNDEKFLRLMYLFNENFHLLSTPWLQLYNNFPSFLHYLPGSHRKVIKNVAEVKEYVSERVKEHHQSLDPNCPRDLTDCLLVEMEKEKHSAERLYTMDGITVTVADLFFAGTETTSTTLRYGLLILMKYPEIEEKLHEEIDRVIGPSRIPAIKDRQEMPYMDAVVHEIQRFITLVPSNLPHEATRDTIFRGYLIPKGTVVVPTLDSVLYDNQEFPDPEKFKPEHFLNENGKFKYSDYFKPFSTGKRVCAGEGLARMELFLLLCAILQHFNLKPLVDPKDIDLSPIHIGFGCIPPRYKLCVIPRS

[2] = target: T1, 5-hydroxytryptamine receptor 1A (Rattus norvegicus, UniProt P19327); type: cell membranes, Membrane; conditions: cho-k1; note: in other assays of this panel Not Active means under 50% inhibition at 10 µM
T1 sequence (P19327 whole entry): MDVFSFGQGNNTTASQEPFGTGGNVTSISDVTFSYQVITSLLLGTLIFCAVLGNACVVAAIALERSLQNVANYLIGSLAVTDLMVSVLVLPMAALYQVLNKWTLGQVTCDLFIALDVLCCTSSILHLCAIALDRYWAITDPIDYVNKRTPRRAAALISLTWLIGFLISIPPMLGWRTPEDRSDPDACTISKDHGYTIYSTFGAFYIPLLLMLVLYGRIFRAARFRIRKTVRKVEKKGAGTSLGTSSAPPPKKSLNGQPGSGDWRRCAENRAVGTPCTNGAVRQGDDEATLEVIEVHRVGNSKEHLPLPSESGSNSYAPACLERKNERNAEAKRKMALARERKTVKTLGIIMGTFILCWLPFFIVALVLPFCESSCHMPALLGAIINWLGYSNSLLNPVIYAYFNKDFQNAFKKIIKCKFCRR

[3] = DRUGMATRIX: Calcium Channel Type L, Phenylalkylamine radioligand binding (ligand: [3H] (-)-Desmethoxyverapamil (D-888)); type: cell membranes, Rattus norvegicus, Wistar, Brain, Membrane; conditions: Not Active = under 50% inhibition at 10 µM
[4] = DRUGMATRIX: Imidazoline I2, Central radioligand binding (ligand: [3H] Idazoxan); type: cell membranes, Rattus norvegicus, Wistar, Cerebral cortex, Membrane; conditions: Not Active = under 50% inhibition at 10 µM
[5] = target: Mitogen-activated protein kinase 1 (Homo sapiens, UniProt P28482); assay: DRUGMATRIX: Protein Serine/Threonine Kinase, ERK2 enzyme inhibition (substrate: Myelin Basic Protein); set-up: species or system Escherichia coli; conditions: Not Active = under 50% inhibition at 10 µM
Mitogen-activated protein kinase 1, sequence (P28482 whole entry): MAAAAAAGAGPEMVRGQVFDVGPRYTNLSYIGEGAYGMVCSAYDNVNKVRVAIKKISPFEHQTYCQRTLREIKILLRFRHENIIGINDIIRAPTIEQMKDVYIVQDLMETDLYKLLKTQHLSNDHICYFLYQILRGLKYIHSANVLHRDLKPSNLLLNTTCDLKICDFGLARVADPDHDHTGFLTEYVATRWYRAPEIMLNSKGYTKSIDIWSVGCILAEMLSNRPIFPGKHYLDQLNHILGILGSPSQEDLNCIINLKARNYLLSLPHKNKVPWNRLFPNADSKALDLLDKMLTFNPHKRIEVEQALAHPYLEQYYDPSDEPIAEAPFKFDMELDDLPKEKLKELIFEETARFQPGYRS

Row | Compound | IC50 [1] | Ki [1] | IC50 (Melanocortin receptor 5) | IC50 (Cytochrome P450 2E1) | Ki (Cytochrome P450 2E1) | IC50 [2] | IC50 [3] | Ki [3] | IC50 [4] | Ki [4] | IC50 [5] | pIC50 ([3]; read-out: IC50) | pKi ([3]; read-out: Ki)
1 | Cn1c(=O)c2c(ncn2CC2OCCO2)n(C)c1=O [DOXOFYLLINE] | Not Active | Not Active | Not Active | Not Active | Not Active | Not Active | Not Active | Not Active | Not Active | Not Active | Not Active | – | –
2 | Cc1cc2cc3c(C)cc(=O)oc3c(C)c2o1 [TRIOXSALEN] | Not Active | Not Active | Not Active | Not Active | Not Active | Not Active | Not Active | Not Active | Not Active | Not Active | Not Active | – | –
3 | Cc1ncc([N+](=O)[O-])n1CCO [METRONIDAZOLE] | Not Active | Not Active | Not Active | Not Active | Not Active | Not Active | Not Active | Not Active | Not Active | Not Active | Not Active | – | –
4 | OC(CCN1CCCCC1)(c1ccccc1)C1CCCCC1 (centres undefined) [TRIHEXYPHENIDYL] | Not Active | Not Active | Not Active | Not Active | Not Active | Not Active | Not Active | Not Active | Not Active | Not Active | Not Active | – | –
5 | O=C(C1CCCCC1)N1CC(=O)N2CCc3ccccc3C2C1 (centres undefined) [PRAZIQUANTEL] | Not Active | Not Active | Not Active | Not Active | Not Active | Not Active | Not Active | Not Active | Not Active | Not Active | Not Active | – | –
6 | C=C1CC[C@H](O)C/C1=C/C=C1\CCC[C@]2(C)[C@@H]([C@H](C)CCCC(C)C)CC[C@@H]12 [CHOLECALCIFEROL] | Not Active | Not Active | Not Active | Not Active | Not Active | Not Active | Not Active | Not Active | Not Active | Not Active | Not Active | – | –
7 | CC(=O)OCC(=O)[C@@]1(O)CC[C@H]2[C@@H]3CCC4=CC(=O)CC[C@]4(C)[C@H]3C(=O)C[C@@]21C [CORTISONE ACETATE] | Not Active | Not Active | Not Active | Not Active | Not Active | Not Active | Not Active | Not Active | Not Active | Not Active | Not Active | – | –
8 | COc1ccc2[nH]c([S+]([O-])Cc3ncc(C)c(OC)c3C)nc2c1 (centres undefined) [OMEPRAZOLE] | Not Active | Not Active | Not Active | Not Active | Not Active | Not Active | Not Active | Not Active | Not Active | Not Active | Not Active | – | –
9 | C[C@@]12C(=O)OC(=O)[C@]1(C)[C@H]1CC[C@@H]2O1 [CANTHARIDIN] | Not Active | Not Active | Not Active | Not Active | Not Active | Not Active | Not Active | Not Active | Not Active | Not Active | Not Active | – | –
10 | Nc1c(CC(=O)O)cccc1C(=O)c1ccc(Br)cc1 [BROMFENAC] | Not Active | Not Active | Not Active | Not Active | Not Active | Not Active | Not Active | Not Active | Not Active | Not Active | Not Active | – | –
11 | C[C@H]1O[C@@H](O[C@H]2[C@@H](O)C[C@H](O[C@H]3[C@@H](O)C[C@H](O[C@H]4CC[C@@]5(C)[C@H](CC[C@@H]6[C@@H]5CC[C@]5(C)[C@@H](C7=CC(=O)OC7)CC[C@]65O)C4)O[C@@H]3C)O[C@@H]2C)C[C@H](O)[C@@H]1O [DIGITOXIN] | Not Active | Not Active | Not Active | Not Active | Not Active | Not Active | Not Active | Not Active | Not Active | Not Active | Not Active | – | –
12 | C[N+](C)(C)CCO.[Cl-] [CHOLINE CHLORIDE] | Not Active | Not Active | Not Active | Not Active | Not Active | Not Active | Not Active | Not Active | Not Active | Not Active | Not Active | – | –
13 | CN(C)c1ccc(C(=C2C=CC(=[N+](C)C)C=C2)c2ccc(N(C)C)cc2)cc1.[Cl-] [GENTIAN VIOLET] | Not Active | Not Active | Not Active | Not Active | Not Active | Not Active | – | – | Not Active | Not Active | Not Active | 5.46 | 5.48
14 | O=S(=O)([O-])CCS.[Na+] [MESNA] | Not Active | Not Active | Not Active | Not Active | Not Active | Not Active | Not Active | Not Active | Not Active | Not Active | Not Active | – | –
15 | O=C(O)Cc1ccccc1Nc1c(Cl)cccc1Cl [DICLOFENAC] | Not Active | Not Active | Not Active | Not Active | Not Active | Not Active | Not Active | Not Active | Not Active | Not Active | Not Active | – | –
16 | COc1ccccc1C(=O)N1CCC(Cc2ccccc2)CC1 | Not Active | Not Active | Not Active | Not Active | Not Active | Not Active | Not Active | Not Active | Not Active | Not Active | Not Active | – | –
17 | CCC1=C[C@@H]2CN(C1)Cc1c([nH]c3ccccc13)[C@@](C(=O)OC)(c1cc3c(cc1OC)N(C)[C@H]1[C@@](O)(C(=O)OC)[C@H](OC(C)=O)[C@]4(CC)C=CCN5CC[C@]31[C@@H]54)C2 [VINORELBINE] | Not Active | Not Active | Not Active | Not Active | Not Active | Not Active | Not Active | Not Active | Not Active | Not Active | Not Active | – | –
18 | CCOC(=O)[C@H](CCc1ccccc1)N[C@H]1CCc2ccccc2N(CC(=O)O)C1=O [BENAZEPRIL] | Not Active | Not Active | Not Active | Not Active | Not Active | Not Active | Not Active | Not Active | Not Active | Not Active | Not Active | – | –
19 | CCOC(=O)C(C)(C)Oc1ccc(Cl)cc1 [CLOFIBRATE] | Not Active | Not Active | Not Active | Not Active | Not Active | Not Active | Not Active | Not Active | Not Active | Not Active | Not Active | – | –
20 | CC(=O)Nc1c(I)c(NC(C)=O)c(I)c(C(=O)O)c1I [DIATRIZOIC ACID] | Not Active | Not Active | Not Active | Not Active | Not Active | Not Active | Not Active | Not Active | Not Active | Not Active | Not Active | – | –
21 | CCOC(=O)C1=C(C)NC(C)=C(C(=O)OC)C1c1cccc([N+](=O)[O-])c1 (centres undefined) [NITRENDIPINE] | Not Active | Not Active | Not Active | Not Active | Not Active | Not Active | Not Active | Not Active | Not Active | Not Active | Not Active | – | –
22 | O=C1CC[C@H](N2C(=O)c3ccccc3C2=O)C(=O)N1 | Not Active | Not Active | Not Active | Not Active | Not Active | Not Active | Not Active | Not Active | Not Active | Not Active | Not Active | – | –
23 | CC(C)Cc1ccc(C(C)C(=O)O)cc1 (centres undefined) [IBUPROFEN] | Not Active | Not Active | Not Active | Not Active | Not Active | Not Active | Not Active | Not Active | Not Active | Not Active | Not Active | – | –
24 | CCCCN1CCCCC1C(=O)Nc1c(C)cccc1C.Cl (centres undefined) [BUPIVACAINE HYDROCHLORIDE] | Not Active | Not Active | Not Active | Not Active | Not Active | Not Active | Not Active | Not Active | Not Active | Not Active | Not Active | – | –
